Laboratory results: patent US9266876B2 (Actelion Pharmaceuticals Ltd., priority 2012, dated 2016)

Experiments:
CXCR3 = CXCR3 (Homo sapiens (Human), UniProt P49682); assay: Receptor internalization assay; type: cell-based; conditions: human whole blood; final CXCL10 concentration 9 nM; 30 min 37° C.; CXCR3 cell surface expression on CD3 positive cells, flow cytometer; read-out: Internalization IC50
Method: B): Receptor Internalization Assay:
Stock solutions of test compounds are made up at a concentration of 10 mM in DMSO, and serially diluted in PBS containing 0.5% BSA to concentrations required for inhibition dose response curves. Diluted compounds are then mixed with an equal volume of CXCL10 (Peprotech) diluted in PBS. Anticoagulated venous human whole blood is added to the mixture, which is then incubated in a CO2 incubator at 37° C. to allow for ligand mediated receptor internalization (final CXCL10 concentration is 9 nM). After 30′, the blood is mixed with fluorescently labeled CXCR3 and CD3 specific antibodies (Becton Dickinson) and incubated on ice for 10 minutes. Samples are then mixed with BD FACS Lysing Solution (Becton Dickinson) in order to eliminate red blood cells. After washing the cells with PBS containing 0.5% BSA, the samples are then analyzed in a flow cytometer (FACS Canto II, Becton Dickinson). For data analysis using FACSDiva software (Becton Dickinson), the mean fluorescence corresponding to CXCR3 cell surface expression was determined on CD3 positive cells. The program GraphPad Prism is used to fit the data to a single site dose response curve and to calculate IC50 values.

human CXCR3A = human CXCR3A (Homo sapiens (Human), UniProt P49682); assay: FLIPR assay; type: cell-based; conditions: CHO-K1 cells expressing the human CXCR3A coupled to Galpha(16); CXCL10 agonist 20 nM; Fluo-4-AM fluorescence; mean values if determined several times
Chain of human CXCR3A (P49682 whole entry): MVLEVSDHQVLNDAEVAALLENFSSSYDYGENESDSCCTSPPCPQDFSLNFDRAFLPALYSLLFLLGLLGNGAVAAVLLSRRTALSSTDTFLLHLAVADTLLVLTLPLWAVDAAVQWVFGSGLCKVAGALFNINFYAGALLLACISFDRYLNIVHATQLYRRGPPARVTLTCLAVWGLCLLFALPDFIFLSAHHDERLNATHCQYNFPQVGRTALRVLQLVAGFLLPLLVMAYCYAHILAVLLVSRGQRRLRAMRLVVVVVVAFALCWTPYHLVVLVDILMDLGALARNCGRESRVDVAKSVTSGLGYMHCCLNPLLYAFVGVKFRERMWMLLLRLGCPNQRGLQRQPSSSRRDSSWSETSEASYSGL
Procedure, shortened: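 CHO-K1 cells expressing CXCR3A coupled to Gα16 were loaded with Fluo-4-AM for 1 h in Hepes-buffered HBSS, pH 7.4, with 5 mM probenecid. Compound dilutions were added on the FLIPR, followed by CXCL10 (added as a 20 nM solution). Baseline-subtracted peak fluorescence was fitted to a single-site curve for IC50.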

Chain of CXCR3 (P49682 whole entry): as above

| IC50 (CXCR3) | IC50 (human CXCR3A) | Compound |
| --- | --- | --- |
| 12 nM | 4 nM | CN(C)C[C@@H]1CN(c2sc(C(F)(F)F)nc2-c2nc3ccccc3[nH]2)CCN1C(=O)Cn1cnc2cccnc21 [Example 228, 1-{(R)-4-[4-(1H-Benzoimidazol-2-yl)-2-trifluoromethyl-thiazol-5-yl]-2-dimethylaminomethyl-piperazin-1-yl}-2-imidazo[4,5-b]pyridin-3-yl-ethanone] |
| 822 nM | 6 nM | Cc1nc(C)n(CC(=O)N2CCN(c3sc(C(F)(F)F)nc3-c3nc4ccc(-n5cncn5)cc4[nH]3)C[C@H]2C)n1 [Example 234, 2-(3,5-Dimethyl-[1,2,4]triazol-1-yl)-1-{(R)-2-methyl-4-[4-(6-[1,2,4]triazol-1-yl-1H-benzoimidazol-2-yl)-2-trifluoromethyl-thiazol-5-yl]-piperazin-1-yl}-ethanone] |
| 231 nM | 1 nM | C[C@@H]1CN(c2scnc2-c2nc3cc(Cl)ccc3[nH]2)C[C@H](C)N1C(=O)Cn1cnc2cccnc21 [Example 72, 1-{(2S,6R)-4-[4-(5-Chloro-1H-benzoimidazol-2-yl)-thiazol-5-yl]-2,6-dimethyl-piperazin-1-yl}-2-imidazo[4,5-b]pyridin-3-yl-ethanone] |
| 566 nM | 0.5 nM | C[C@@H]1CN(c2scnc2-c2nc3cc(F)ccc3[nH]2)CCN1C(=O)Cn1cnc2cccnc21 [Example 96, 1-{(R)-4-[4-(5-Fluoro-1H-benzoimidazol-2-yl)-thiazol-5-yl]-2-methyl-piperazin-1-yl}-2-imidazo[4,5-b]pyridin-3-yl-ethanone] |
| 1090 nM | 4 nM | C[C@@H]1CN(c2scnc2-c2nc3ccccc3[nH]2)CCN1C(=O)Cn1cnc2cnccc21 [Example 138, 1-{(R)-4-[4-(1H-Benzoimidazol-2-yl)-thiazol-5-yl]-2-methyl-piperazin-1-yl}-2-imidazo[4,5-c]pyridin-1-yl-ethanone] |
| 1440 nM | 6 nM | O=C(CN1C(=O)CCc2ccccc21)N1CCN(c2scnc2-c2nc3ccccc3[nH]2)CC1 [Example 77, 1-(2-{4-[4-(1H-Benzoimidazol-2-yl)-thiazol-5-yl]-piperazin-1-yl}-2-oxo-ethyl)-3,4-dihydro-1H-quinolin-2-one] |
| 140 nM | 1 nM | COC(=O)c1ccc2[nH]c(-c3nc(C(F)(F)F)sc3N3CCN(C(=O)Cn4cnc5cccnc54)[C@H](C)C3)nc2c1 [Example 167, 2-{5-[(R)-4-(2-Imidazo[4,5-b]pyridin-3-yl-acetyl)-3-methyl-piperazin-1-yl]-2-trifluoromethyl-thiazol-4-yl}-1H-benzoimidazole-5-carboxylic acid methyl ester] |
| 314 nM | 3 nM | Cc1cc2[nH]c(-c3ncsc3N3CCN(C(=O)Cn4ccc5cccnc54)[C@H](C)C3)nc2cc1Cl [Example 27, 1-{(R)-4-[4-(5-Chloro-6-methyl-1H-benzoimidazol-2-yl)-thiazol-5-yl]-2-methyl-piperazin-1-yl}-2-pyrrolo[2,3-b]pyridin-1-yl-ethanone] |
| 111 nM | 2 nM | C[C@@H]1CN(c2sc(C(F)(F)F)nc2-c2nc3ccccc3[nH]2)CCN1C(=O)CN1C(=O)C(F)(F)c2ccccc21 [Example 205, 1-(2-{(R)-4-[4-(1H-Benzoimidazol-2-yl)-2-trifluoromethyl-thiazol-5-yl]-2-methyl-piperazin-1-yl}-2-oxo-ethyl)-3,3-difluoro-1,3-dihydro-indol-2-one] |
| 447 nM | 6 nM | C[C@@H]1CN(c2scnc2-c2nc3ccccc3[nH]2)CCN1C(=O)Cn1cnc2cccnc21 [Example 17, 1-{(R)-4-[4-(1H-Benzoimidazol-2-yl)-thiazol-5-yl]-2-methyl-piperazin-1-yl}-2-imidazo[4,5-b]pyridin-3-yl-ethanone] |
| 1440 nM | 15 nM | COC1CCN(Cc2ccc3nc(-c4nc(C(F)(F)F)sc4N4CCN(C(=O)Cn5cccn5)[C@H](C)C4)[nH]c3c2)C1 (stereo partly drawn) [Example 183, 1-((R)-4-{4-[6-(3-Methoxy-pyrrolidin-1-ylmethyl)-1H-benzoimidazol-2-yl]-2-trifluoromethyl-thiazol-5-yl}-2-methyl-piperazin-1-yl)-2-pyrazol-1-yl-ethanone] |
| 816 nM | 3 nM | O=C(Cn1ccc2ccc(Cl)nc21)N1CCN(c2scnc2-c2nc3ccccc3[nH]2)CC1 [Example 65, 1-{4-[4-(1H-Benzoimidazol-2-yl)-thiazol-5-yl]-piperazin-1-yl}-2-(6-chloro-pyrrolo[2,3-b]pyridin-1-yl)-ethanone] |
| 3900 nM | 3 nM | O=C(Cn1ccc2cccnc21)N1CCCN(c2scnc2-c2nc3ccccc3[nH]2)CC1 [Example 44, 1-{4-[4-(1H-Benzoimidazol-2-yl)-thiazol-5-yl]-[1,4]diazepan-1-yl}-2-pyrrolo[2,3-b]pyridin-1-yl-ethanone] |
| 332 nM | 1 nM | Cc1nc(C)n(CC(=O)N2CCN(c3sc(C(F)(F)F)nc3-c3nc4c(F)c(F)ccc4[nH]3)C[C@H]2C)n1 [Example 231, 1-{(R)-4-[4-(4,5-Difluoro-1H-benzoimidazol-2-yl)-2-trifluoromethyl-thiazol-5-yl]-2-methyl-piperazin-1-yl}-2-(3,5-dimethyl-[1,2,4]triazol-1-yl)-ethanone] |
| 2610 nM | 15 nM | O=C(Cn1ccc2ccccc21)N1CCN(c2scnc2-c2nc3ccccc3[nH]2)CC1 [Example 4, 1-{4-[4-(1H-Benzoimidazol-2-yl)-thiazol-5-yl]-piperazin-1-yl}-2-indol-1-yl-ethanone] |
| 5880 nM | 15 nM | CCc1nc(-c2nc3ccccc3[nH]2)c(N2CCN(C(=O)Cn3ccc4cccnc43)CC2)s1 [Example 39, 1-{4-[4-(1H-Benzoimidazol-2-yl)-2-ethyl-thiazol-5-yl]-piperazin-1-yl}-2-pyrrolo[2,3-b]pyridin-1-yl-ethanone] |
| 119 nM | 1 nM | C[C@@H]1CN(c2sc(C(F)(F)F)nc2-c2nc3ccccc3[nH]2)CCN1C(=O)Cn1c(=O)[nH]c2cccnc21 [Example 104, 3-(2-{(R)-4-[4-(1H-Benzoimidazol-2-yl)-2-trifluoromethyl-thiazol-5-yl]-2-methyl-piperazin-1-yl}-2-oxo-ethyl)-1,3-dihydro-imidazo[4,5-b]pyridin-2-one] |
| 895 nM | 0.4 nM | C[C@@H]1CN(c2scnc2-c2nc3cc(F)c(F)cc3[nH]2)CCN1C(=O)Cn1cnc2cccnc21 [Example 91, 1-{(R)-4-[4-(5,6-Difluoro-1H-benzoimidazol-2-yl)-thiazol-5-yl]-2-methyl-piperazin-1-yl}-2-imidazo[4,5-b]pyridin-3-yl-ethanone] |
| 210 nM | 1 nM | C[C@@H]1CN(c2sc(C(F)(F)F)nc2-c2nc3ccccc3[nH]2)CCN1C(=O)Cn1ccc(C(F)(F)F)n1 [Example 193, 1-{(R)-4-[4-(1H-Benzoimidazol-2-yl)-2-trifluoromethyl-thiazol-5-yl]-2-methyl-piperazin-1-yl}-2-(3-trifluoromethyl-pyrazol-1-yl)-ethanone] |
| 98 nM | 1 nM | CN(C)C[C@@H]1CN(c2scnc2-c2nc3ccccc3[nH]2)CCN1C(=O)Cn1cnc2cccnc21 [Example 229, 1-{(R)-4-[4-(1H-Benzoimidazol-2-yl)-thiazol-5-yl]-2-dimethylaminomethyl-piperazin-1-yl}-2-imidazo[4,5-b]pyridin-3-yl-ethanone] |
| 1110 nM | 0.3 nM | C[C@@H]1CN(c2scnc2-c2nc3ccccc3[nH]2)CCN1C(=O)CN1C(=O)C(F)(F)c2ccccc21 [Example 187, 1-(2-{(R)-4-[4-(1H-Benzoimidazol-2-yl)-thiazol-5-yl]-2-methyl-piperazin-1-yl}-2-oxo-ethyl)-3,3-difluoro-1,3-dihydro-indol-2-one] |

| Compound | IC50 (CXCR3) | IC50 (human CXCR3A) |
| --- | --- | --- |
| Cc1nc(C)n(CC(=O)N2CCN(c3sc(C(F)(F)F)nc3-c3nc4ccc(C5CCOCC5)cc4[nH]3)C[C@H]2C)n1 [Example 238, 2-(3,5-Dimethyl-[1,2,4]triazol-1-yl)-1-((R)-2-methyl-4-{4-[6-(tetrahydro-pyran-4-yl)-1H-benzoimidazol-2-yl]-2-trifluoromethyl-thiazol-5-yl}-piperazin-1-yl)-ethanone] | 103 nM | 1 nM |
| C[C@@H]1CN(c2sc(C(F)(F)F)nc2-c2nc3ccccc3[nH]2)CCN1C(=O)Cn1cnc2cccnc21 [Example 51, 1-{(R)-4-[4-(1H-Benzoimidazol-2-yl)-2-trifluoromethyl-thiazol-5-yl]-2-methyl-piperazin-1-yl}-2-imidazo[4,5-b]pyridin-3-yl-ethanone] | 66 nM | 1 nM |
| Cc1nc(C)n(CC(=O)N2CCN(c3sc(C(F)(F)F)nc3-c3nc4ccc(-c5noc(C)n5)cc4[nH]3)C[C@H]2C)n1 [Example 236, 2-(3,5-Dimethyl-[1,2,4]triazol-1-yl)-1-((R)-2-methyl-4-{4-[6-(5-methyl-[1,2,4]oxadiazol-3-yl)-1H-benzoimidazol-2-yl]-2-trifluoromethyl-thiazol-5-yl}-piperazin-1-yl)-ethanone] | 265 nM | 3 nM |
